Broadly, the IC50 is the point on the concentration scale where inhibition reaches its midpoint. A high value points to a need for much substance.

Structures are written as SMILES. Bounds are passed on as bounds.

Data set [1] has as its system transporters at major organ sites. Description: Prediction of transporter-mediated inhibition / DDI potential. The note with it: of 11 transporters; FDA criteria. The arrangement: species or system human.
Another data set addresses T1, human OAT3 (Homo sapiens, UniProt Q8TCC7).
T1 sequence (Q8TCC7 1-542): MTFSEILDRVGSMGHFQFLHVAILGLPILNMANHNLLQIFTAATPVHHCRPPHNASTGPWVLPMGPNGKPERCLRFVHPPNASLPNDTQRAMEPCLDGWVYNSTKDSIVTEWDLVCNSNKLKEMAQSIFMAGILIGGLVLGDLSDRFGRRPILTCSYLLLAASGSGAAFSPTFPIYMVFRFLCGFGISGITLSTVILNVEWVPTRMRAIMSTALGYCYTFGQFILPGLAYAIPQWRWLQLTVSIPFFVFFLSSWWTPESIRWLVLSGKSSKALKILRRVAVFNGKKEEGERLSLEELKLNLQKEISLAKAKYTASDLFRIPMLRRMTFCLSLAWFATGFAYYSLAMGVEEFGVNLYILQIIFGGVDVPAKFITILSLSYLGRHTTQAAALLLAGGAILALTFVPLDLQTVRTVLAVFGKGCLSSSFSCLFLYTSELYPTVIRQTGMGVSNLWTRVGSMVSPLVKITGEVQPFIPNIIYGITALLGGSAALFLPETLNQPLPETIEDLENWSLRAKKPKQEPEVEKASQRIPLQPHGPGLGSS
Description: cell-based.

A further data set has as its target T2, BCRP (Homo sapiens, UniProt Q9UNQ0).
T2 sequence (Q9UNQ0 1-655): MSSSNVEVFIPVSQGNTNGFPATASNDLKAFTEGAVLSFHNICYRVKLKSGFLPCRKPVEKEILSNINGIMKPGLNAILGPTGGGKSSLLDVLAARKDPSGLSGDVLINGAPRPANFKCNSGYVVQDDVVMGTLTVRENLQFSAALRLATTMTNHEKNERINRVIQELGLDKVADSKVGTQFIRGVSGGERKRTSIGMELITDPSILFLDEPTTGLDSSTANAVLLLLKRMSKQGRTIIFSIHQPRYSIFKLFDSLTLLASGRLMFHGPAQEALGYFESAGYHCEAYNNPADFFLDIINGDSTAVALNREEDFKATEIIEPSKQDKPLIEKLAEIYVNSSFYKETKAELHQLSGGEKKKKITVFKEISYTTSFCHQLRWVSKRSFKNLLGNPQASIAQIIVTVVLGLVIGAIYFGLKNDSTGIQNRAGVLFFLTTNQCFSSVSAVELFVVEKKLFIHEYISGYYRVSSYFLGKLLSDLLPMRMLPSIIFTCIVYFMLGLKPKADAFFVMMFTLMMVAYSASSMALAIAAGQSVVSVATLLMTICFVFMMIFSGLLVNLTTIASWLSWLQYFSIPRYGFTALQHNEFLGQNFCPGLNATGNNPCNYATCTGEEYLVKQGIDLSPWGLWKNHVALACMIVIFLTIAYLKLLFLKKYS
In words: biochemical.

The next data set deals with T3, human OAT1 (Homo sapiens, UniProt Q4U2R8).
T3 sequence (Q4U2R8 1-563): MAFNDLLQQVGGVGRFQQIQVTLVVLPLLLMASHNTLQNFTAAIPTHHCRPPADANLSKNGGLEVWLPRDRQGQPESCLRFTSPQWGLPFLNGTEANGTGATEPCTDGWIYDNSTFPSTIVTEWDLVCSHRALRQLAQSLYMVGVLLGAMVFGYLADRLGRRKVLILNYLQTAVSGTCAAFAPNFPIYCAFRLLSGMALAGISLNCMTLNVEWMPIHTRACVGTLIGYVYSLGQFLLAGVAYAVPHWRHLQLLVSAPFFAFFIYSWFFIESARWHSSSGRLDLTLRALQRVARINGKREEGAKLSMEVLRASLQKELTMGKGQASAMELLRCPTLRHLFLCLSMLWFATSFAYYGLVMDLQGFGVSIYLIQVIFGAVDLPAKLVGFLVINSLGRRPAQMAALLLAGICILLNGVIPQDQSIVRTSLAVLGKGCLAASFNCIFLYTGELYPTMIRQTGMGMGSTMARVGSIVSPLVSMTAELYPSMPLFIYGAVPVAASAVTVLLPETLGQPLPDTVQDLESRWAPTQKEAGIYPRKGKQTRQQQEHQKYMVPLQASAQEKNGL
In words: cell-based.

For data set [2] the following is noted: known in vivo P-gp inhibitor; cited from earlier work.
A further data set has as its target P-gp (Homo sapiens, UniProt P08183). In words: biochemical.
A further data set deals with T4, human MATE1 (Homo sapiens, UniProt Q96FL8).
T4 sequence (Q96FL8 1-570): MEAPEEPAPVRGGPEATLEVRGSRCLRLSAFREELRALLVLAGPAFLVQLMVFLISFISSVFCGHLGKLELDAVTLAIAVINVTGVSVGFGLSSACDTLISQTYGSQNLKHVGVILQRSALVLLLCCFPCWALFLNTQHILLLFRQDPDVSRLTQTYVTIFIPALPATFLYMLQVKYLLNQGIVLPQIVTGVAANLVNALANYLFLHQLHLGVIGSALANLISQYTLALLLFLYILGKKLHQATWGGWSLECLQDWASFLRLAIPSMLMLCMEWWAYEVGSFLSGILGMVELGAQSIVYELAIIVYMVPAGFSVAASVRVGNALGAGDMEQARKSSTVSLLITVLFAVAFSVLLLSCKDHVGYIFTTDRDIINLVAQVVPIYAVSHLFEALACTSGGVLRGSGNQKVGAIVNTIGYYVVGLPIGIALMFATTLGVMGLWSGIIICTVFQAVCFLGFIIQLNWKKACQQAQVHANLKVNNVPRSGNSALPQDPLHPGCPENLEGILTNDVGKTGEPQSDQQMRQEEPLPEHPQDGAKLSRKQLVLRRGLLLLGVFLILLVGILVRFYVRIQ
In words: cell-based.

A further data set has as its target human MATE2 (Homo sapiens, UniProt Q86VL8). In words: cell-based.
A further data set has as its target T5, human OCT1 (Homo sapiens, UniProt O15245).
T5 sequence (O15245 1-554): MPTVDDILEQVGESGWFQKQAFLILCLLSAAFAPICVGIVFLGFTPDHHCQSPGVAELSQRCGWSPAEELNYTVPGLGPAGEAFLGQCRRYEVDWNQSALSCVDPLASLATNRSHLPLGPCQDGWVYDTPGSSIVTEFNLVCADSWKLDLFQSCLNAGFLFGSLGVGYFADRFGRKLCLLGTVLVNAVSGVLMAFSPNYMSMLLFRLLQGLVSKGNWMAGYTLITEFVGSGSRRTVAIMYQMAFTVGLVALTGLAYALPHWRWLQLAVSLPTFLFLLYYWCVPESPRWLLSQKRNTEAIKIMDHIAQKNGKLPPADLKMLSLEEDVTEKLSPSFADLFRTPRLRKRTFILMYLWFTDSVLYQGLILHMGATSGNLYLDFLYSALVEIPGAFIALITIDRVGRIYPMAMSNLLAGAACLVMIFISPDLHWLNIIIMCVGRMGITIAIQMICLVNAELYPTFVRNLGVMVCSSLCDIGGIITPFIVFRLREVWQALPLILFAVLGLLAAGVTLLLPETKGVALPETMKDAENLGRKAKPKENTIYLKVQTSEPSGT
Description: cell-based.

Chain of human MATE2 (Q86VL8 1-566 isoform Q86VL8-3): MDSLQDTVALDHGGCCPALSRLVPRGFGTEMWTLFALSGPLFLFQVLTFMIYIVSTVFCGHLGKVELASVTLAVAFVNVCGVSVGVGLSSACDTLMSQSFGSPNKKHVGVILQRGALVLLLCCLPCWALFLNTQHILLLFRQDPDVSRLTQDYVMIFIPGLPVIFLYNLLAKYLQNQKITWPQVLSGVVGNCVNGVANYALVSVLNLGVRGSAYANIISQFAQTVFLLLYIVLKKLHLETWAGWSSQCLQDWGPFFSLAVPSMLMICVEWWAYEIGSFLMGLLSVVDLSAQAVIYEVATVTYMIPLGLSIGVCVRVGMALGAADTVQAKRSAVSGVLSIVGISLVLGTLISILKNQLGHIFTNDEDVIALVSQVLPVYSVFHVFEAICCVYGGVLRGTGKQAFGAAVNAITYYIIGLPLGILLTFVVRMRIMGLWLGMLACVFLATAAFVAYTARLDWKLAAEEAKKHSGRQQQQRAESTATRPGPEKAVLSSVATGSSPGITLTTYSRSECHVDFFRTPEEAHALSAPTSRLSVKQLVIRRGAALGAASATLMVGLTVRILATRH
Chain of P-gp (P08183 whole entry): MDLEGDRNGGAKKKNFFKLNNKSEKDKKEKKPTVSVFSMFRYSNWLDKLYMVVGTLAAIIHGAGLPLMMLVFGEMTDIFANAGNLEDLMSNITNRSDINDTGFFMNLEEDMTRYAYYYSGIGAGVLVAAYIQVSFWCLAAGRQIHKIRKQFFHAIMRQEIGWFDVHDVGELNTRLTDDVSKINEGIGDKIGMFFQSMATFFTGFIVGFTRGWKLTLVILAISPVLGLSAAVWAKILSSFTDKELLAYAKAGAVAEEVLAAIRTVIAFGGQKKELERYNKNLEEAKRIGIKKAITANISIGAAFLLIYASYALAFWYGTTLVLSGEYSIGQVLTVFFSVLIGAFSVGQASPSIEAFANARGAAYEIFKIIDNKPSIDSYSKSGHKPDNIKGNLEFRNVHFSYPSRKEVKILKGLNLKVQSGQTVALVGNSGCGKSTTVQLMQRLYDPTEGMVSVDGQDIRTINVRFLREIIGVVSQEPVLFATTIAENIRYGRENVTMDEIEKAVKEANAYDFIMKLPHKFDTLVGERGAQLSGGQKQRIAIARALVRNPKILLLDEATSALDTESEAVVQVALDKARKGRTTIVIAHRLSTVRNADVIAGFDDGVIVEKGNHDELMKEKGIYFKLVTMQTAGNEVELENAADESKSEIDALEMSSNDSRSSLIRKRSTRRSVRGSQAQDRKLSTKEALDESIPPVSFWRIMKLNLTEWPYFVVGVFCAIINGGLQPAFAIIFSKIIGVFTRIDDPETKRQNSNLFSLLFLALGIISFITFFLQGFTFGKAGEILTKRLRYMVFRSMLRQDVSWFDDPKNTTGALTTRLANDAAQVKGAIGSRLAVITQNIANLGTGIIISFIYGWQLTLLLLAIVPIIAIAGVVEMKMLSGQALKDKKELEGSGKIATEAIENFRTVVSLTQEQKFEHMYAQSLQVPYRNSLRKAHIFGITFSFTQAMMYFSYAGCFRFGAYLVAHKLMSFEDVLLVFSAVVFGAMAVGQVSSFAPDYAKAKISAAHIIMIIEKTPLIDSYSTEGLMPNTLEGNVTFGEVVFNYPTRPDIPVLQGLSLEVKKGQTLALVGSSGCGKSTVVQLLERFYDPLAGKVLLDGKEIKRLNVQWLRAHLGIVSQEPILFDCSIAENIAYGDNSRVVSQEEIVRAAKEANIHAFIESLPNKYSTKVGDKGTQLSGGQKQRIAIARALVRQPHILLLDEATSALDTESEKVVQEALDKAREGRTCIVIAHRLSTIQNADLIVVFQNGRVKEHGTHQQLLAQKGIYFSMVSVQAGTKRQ

As to `CC[C@H]1OC(=O)[C@H](C)[C@@H](O[C@H]2C[C@@](C)(OC)[C@@H](O)[C@H](C)O2)[C@H](C)[C@@H](O[C@@H]2O[C@H](C)C[C@H](N(C)C)[C@H]2O)[C@](C)(O)C[C@@H](C)CN(C)[C@H](C)[C@@H](O)[C@]1(C)O` [Azithromycin], in data set [1], the “No. of transporters at major organ sites inhibited at clinical concentrations” value was 1. For the same compound, the IC50 against human OAT3 is greater than 50 µM; on BCRP it was greater than 50 µM; on human OAT1 it was greater than 50 µM; against P-gp, 18 µM; against human MATE1 it was greater than 50 µM; on human MATE2, greater than 50 µM. Further, at human OCT1, the IC50 was greater than 50 µM. In addition, the “effect on plasma levels of P-gp substrates” value in [2] was “increases plasma levels of the non‐sedating antihistamine, fexofenadine, and the anticoagulant, ximelagatran”.

Values taken from PMC8217266 (Clinical Pharmacology and Therapeutics, 2021).
